What was measured:
MALME-3M = details: melanoma MALME-3M; read-out: LC50 (the source's name); cited from earlier work
H522-T1 = assay: Cell growth inhibition assay (CellTiter-Glo); assay type: cell-based, human
Protocol: (§1) Cell Culture and Cell Growth Inhibition Assay.
(§2) The chosen cell lines are all human cancer cell lines except for the 4T1 murine breast cancer line, representing a wide variety of cancer types including breast (MDA-MB-453), kidney (A498), lung (H1975), pancreatic (PANC-1) and endometrial cancer (AN3CA, HEC-1A, and RL95-2), glioblastoma (U251 and U-87MG), melanoma (A2058 and LOXIMVI) and uterine sarcoma (MES-SA). All the cancer cell lines can be obtained from the American Type Culture Collection (ATCC, Manassas, Va., USA) with the exception of U251 which can be provided by the National Cancer Institute Tumor Repository (Frederick, Md.) and is cultured in the standard tissue culture media appropriate for each cell line. All the culture media are supplemented with 10% fetal bovine serum (FBS), 100 I.U./mL penicillin and 100 μg/mL streptomycin. For the cell growth inhibition assay, the cells are seeded in 96-well tissue culture plates at 500-3000 cells/well (seeding density empirically adjusted for each cell line based on growth rate optimization). The cells are allowed to attach for a minimum of 5 h prior to compound administration. The cells are incubated for a period of 4 days after compound addition. Following the incubation period, CellTiter-Glo reagent (Promega, Madison, Wis., USA) is added to all the wells to assess cell proliferation/viability. Luminescence is measured using an Envision microplate reader (Perkin Elmer, Waltham, Mass., USA). The IC50 values were calculated as the concentration which inhibited cell growth to 50% of DMSO control treated cell populations.

HCT-116 = assay: Cell growth inhibition assay (CellTiter-Glo); assay type: cell-based, human
Protocol: as §1, §2

A2058 = assay: Cell growth inhibition assay (CellTiter-Glo); assay type: cell-based, human
Protocol: as §1, §2

[1] = tested on: human umbilical vein endothelial cells (HUVEC); details: normal endothelial HUVEC; cited from earlier work
HT29 = details: colon cancer HT29; read-out: LC50 (the source's name); cited from earlier work
HS 578T = details: breast cancer HS 578T; cited from earlier work
SR = details: leukemia SR; read-out: LC50 (the source's name); cited from earlier work
BXPC-3 = details: pancreas BXPC-3; cited from earlier work
LOX IMVI = details: melanoma LOX IMVI; read-out: LC50 (the source's name); cited from earlier work
[2] = tested on: panel of 60 human cancer cell lines; details: cited from earlier work
SW-620 = details: colon cancer SW-620; read-out: LC50 (the source's name); cited from earlier work
HCC-2998 = details: colon cancer HCC-2998; read-out: LC50 (the source's name); cited from earlier work
CCRF-CEM = details: leukemia CCRF-CEM; cited from earlier work
UACC-62 = details: melanoma UACC-62; read-out: LC50 (the source's name); cited from earlier work
UACC-257 = details: melanoma UACC-257; read-out: LC50 (the source's name); cited from earlier work
MOLT-4 = details: leukemia MOLT-4; read-out: LC50 (the source's name); cited from earlier work
MCF-7 = details: breast MCF-7; cited from earlier work
[3] = tested on: several solid tumor cell lines; details: cited from earlier work
KM20L2 = details: colon KM20L2; cited from earlier work
K-562 = details: leukemia K-562; read-out: LC50 (the source's name); cited from earlier work
SK-MEL-2 = details: melanoma SK-MEL-2; read-out: LC50 (the source's name); cited from earlier work
NCI/ADR-RES = details: breast cancer NCI/ADR-RES; read-out: LC50 (the source's name); cited from earlier work
T-47D = details: breast cancer T-47D; read-out: LC50 (the source's name); cited from earlier work
NCI-H460 = details: lung NCI-H460; cited from earlier work
SK-MEL-5 = details: melanoma SK-MEL-5; read-out: LC50 (the source's name); cited from earlier work
SF-268 = details: CNS SF-268; cited from earlier work
MCF7 = details: breast cancer MCF7; read-out: LC50 (the source's name); cited from earlier work
HL-60(TB) = details: leukemia HL-60(TB); read-out: LC50 (the source's name); cited from earlier work
RPMI-8226 = details: leukemia RPMI-8226; read-out: LC50 (the source's name); cited from earlier work
[4] = Homo sapiens, 96 h, 4 days incubation
[5] = ratio IC50[IMR-90]:IC50[tumor cell line]

C=C(C)C[C@H](OC)[C@H](O)C(=O)N[C@@H](OC)[C@@H]1C[C@@H](O)C(C)(C)[C@@H](C[C@H](O)[C@@H](C)[C@H]2Cc3c(C)c(O)cc(O)c3C(=O)O2)O1 [Irciniastatin A, (+)-Irciniastatin A]
CC50 (MALME-3M): < 0.0025 µM | IC50 (H522-T1; [4]): 1 nM | Selectivity vs. IMR-90, H522-T1 (H522-T1; [5]): 27 | IC50 (HCT-116; [4]): 4 nM | Selectivity vs. IMR-90, HCT-116 (HCT-116; [5]): 7 | IC50 (A2058; [4]): 0.4 nM | Selectivity vs. IMR-90, A2058 (A2058; [5]): 68 | Growth Inhibition of Cancer Cell Lines (GI50) [1]: <0.5 ng/mL | CC50 (HT29): > 25 µM | LC50 (HS 578T): > 25 µM | CC50 (SR): > 25 µM | Growth Inhibition of Cancer Cell Lines (GI50) (BXPC-3): 3.8 ng/mL | CC50 (LOX IMVI): > 25 µM | activity differential as compared to other cell lines within their respective subsets ([2]; MDA-MB-35, SK-MEL-28, UACC-62, HCT-116 versus other lines of the subset): greater than 10,000 fold | activities ([2]; MDA-MB-35 breast cancer, SK-MEL-28 and UACC-62 melanoma, HCT-116 colon cancer cell lines): low nanomolar range | CC50 (SW-620): > 25 µM | CC50 (HCC-2998): 0.36 µM | LC50 (CCRF-CEM): > 25 µM | CC50 (UACC-62): < 0.0025 µM | CC50 (UACC-257): > 25 µM | CC50 (MOLT-4): > 25 µM | Growth Inhibition of Cancer Cell Lines (GI50) (MCF-7): 3.2 ng/mL | hollow fiber assay overall score ([3]; compounds considered active score 20 or higher): 34 | hollow fiber assay score against intraperitoneal fibers ([3]; intraperitoneal fibers): 28 | hollow fiber assay score against subcutaneous fibers ([3]; subcutaneous fibers): 6 | Growth Inhibition of Cancer Cell Lines (GI50) (KM20L2): 2.7 ng/mL | CC50 (K-562): > 25 µM | CC50 (SK-MEL-2): > 25 µM | CC50 (NCI/ADR-RES): 19 µM | CC50 (T-47D): 13.6 µM | Growth Inhibition of Cancer Cell Lines (GI50) (NCI-H460): <0.1 ng/mL | CC50 (SK-MEL-5): < 0.0025 µM | Growth Inhibition of Cancer Cell Lines (GI50) (SF-268): 3.4 ng/mL | CC50 (MCF7): > 25 µM | CC50 (HL-60(TB)): > 25 µM | CC50 (RPMI-8226): > 25 µM

Reference: patent US9540355B2, “Irciniastatin analogues” (priority 2013, dated 2017)
